According to PubChem BioAssay AID1259407 (Chemical Carcinogenesis Research Information System (CCRIS), 2018):
Calls of active or inactive are those of the source. How the calls were made is not given here.

Test system: CCRIS mutagenicity, Ames/micronucleus/aberration tests
Test: CCRIS mutagenicity studies

Measured: mutagenic call

CC(C)O
inactive: Test System: AMES SALMONELLA TYPHIMURIUM, Strain/Indicator: TA97, Metabolic Activation: HAMSTER, LIVER, S-9, AROCLOR 1254 (10 OR 30%), Method: PREINCUBATION inactive; negative | Test System: AMES SALMONELLA TYPHIMURIUM, Strain/Indicator: TA97, Metabolic Activation: NONE, Method: PREINCUBATION inactive; negative | Test System: AMES SALMONELLA TYPHIMURIUM, Strain/Indicator: TA97, Metabolic Activation: RAT, LIVER, S-9, AROCLOR 1254 (10 OR 30%), Method: PREINCUBATION inactive; negative | Test System: AMES SALMONELLA TYPHIMURIUM, Strain/Indicator: TA98, Metabolic Activation: HAMSTER, LIVER, S-9, AROCLOR 1254 (10 OR 30%), Method: PREINCUBATION inactive; negative | Test System: AMES SALMONELLA TYPHIMURIUM, Strain/Indicator: TA98, Metabolic Activation: NONE, Method: PREINCUBATION inactive; negative | Test System: AMES SALMONELLA TYPHIMURIUM, Strain/Indicator: TA98, Metabolic Activation: RAT, LIVER, S-9, AROCLOR 1254 (10 OR 30%), Method: PREINCUBATION inactive; negative | Test System: AMES SALMONELLA TYPHIMURIUM, Strain/Indicator: TA98, Metabolic Activation: RAT, LIVER, S-9, KC 500, Method: PREINCUBATION inactive; negative | Test System: AMES SALMONELLA TYPHIMURIUM, Strain/Indicator: TA98, Metabolic Activation: RAT, LIVER, S-9, PHENOBARBITAL AND BETA-NAPHTHOFLAVONE, Method: PREINCUBATION inactive; negative | Test System: AMES SALMONELLA TYPHIMURIUM, Strain/Indicator: TA100, Metabolic Activation: HAMSTER, LIVER, S-9, AROCLOR 1254 (10 OR 30%), Method: PREINCUBATION inactive; negative | Test System: AMES SALMONELLA TYPHIMURIUM, Strain/Indicator: TA100, Metabolic Activation: NONE, Method: PREINCUBATION inactive; negative | Test System: AMES SALMONELLA TYPHIMURIUM, Strain/Indicator: TA100, Metabolic Activation: RAT, LIVER, S-9, AROCLOR 1254 (10 OR 30%), Method: PREINCUBATION inactive; negative | Test System: AMES SALMONELLA TYPHIMURIUM, Strain/Indicator: TA100, Metabolic Activation: RAT, LIVER, S-9, KC 500, Method: PREINCUBATION inactive; negative | Test System: AMES SALMONELLA TYPHIMURIUM, Strain/Indicator: TA100, Metabolic Activation: RAT, LIVER, S-9, PHENOBARBITAL AND BETA-NAPHTHOFLAVONE, Method: PREINCUBATION inactive; negative | Test System: AMES SALMONELLA TYPHIMURIUM, Strain/Indicator: TA102, Metabolic Activation: NONE, Method: PREINCUBATION inactive; negative | Test System: AMES SALMONELLA TYPHIMURIUM, Strain/Indicator: TA102, Metabolic Activation: RAT, LIVER, S-9, PHENOBARBITAL AND BETA-NAPHTHOFLAVONE, Method: PREINCUBATION inactive; negative | Test System: AMES SALMONELLA TYPHIMURIUM, Strain/Indicator: TA104, Metabolic Activation: NONE, Method: PREINCUBATION inactive; negative | Test System: AMES SALMONELLA TYPHIMURIUM, Strain/Indicator: TA104, Metabolic Activation: RAT, LIVER, S-9, PHENOBARBITAL AND BETA-NAPHTHOFLAVONE, Method: PREINCUBATION inactive; negative | Test System: AMES SALMONELLA TYPHIMURIUM, Strain/Indicator: TA1535, Metabolic Activation: HAMSTER, LIVER, S-9, AROCLOR 1254 (10 OR 30%), Method: PREINCUBATION inactive; negative | Test System: AMES SALMONELLA TYPHIMURIUM, Strain/Indicator: TA1535, Metabolic Activation: NONE, Method: PREINCUBATION inactive; negative | Test System: AMES SALMONELLA TYPHIMURIUM, Strain/Indicator: TA1535, Metabolic Activation: RAT, LIVER, S-9, AROCLOR 1254 (10 OR 30%), Method: PREINCUBATION inactive; negative | Test System: AMES SALMONELLA TYPHIMURIUM, Strain/Indicator: TA1535, Metabolic Activation: RAT, LIVER, S-9, KC 500, Method: PREINCUBATION inactive; negative | Test System: AMES SALMONELLA TYPHIMURIUM, Strain/Indicator: TA1535, Metabolic Activation: RAT, LIVER, S-9, PHENOBARBITAL AND BETA-NAPHTHOFLAVONE, Method: PREINCUBATION inactive; negative | Test System: AMES SALMONELLA TYPHIMURIUM, Strain/Indicator: TA1537, Metabolic Activation: HAMSTER, LIVER, S-9, AROCLOR 1254 (30%), Method: PREINCUBATION inactive; negative | Test System: AMES SALMONELLA TYPHIMURIUM, Strain/Indicator: TA1537, Metabolic Activation: NONE, Method: PREINCUBATION inactive; negative | Test System: AMES SALMONELLA TYPHIMURIUM, Strain/Indicator: TA1537, Metabolic Activation: RAT, LIVER, S-9, AROCLOR 1254 (30%), Method: PREINCUBATION inactive; negative | Test System: AMES SALMONELLA TYPHIMURIUM, Strain/Indicator: TA1537, Metabolic Activation: RAT, LIVER, S-9, KC 500, Method: PREINCUBATION inactive; negative | Test System: AMES SALMONELLA TYPHIMURIUM, Strain/Indicator: TA1537, Metabolic Activation: RAT, LIVER, S-9, PHENOBARBITAL AND BETA-NAPHTHOFLAVONE, Method: PREINCUBATION inactive; negative | Test System: AMES SALMONELLA TYPHIMURIUM, Strain/Indicator: TA1538, Metabolic Activation: NONE, Method: PREINCUBATION inactive; negative | Test System: AMES SALMONELLA TYPHIMURIUM, Strain/Indicator: TA1538, Metabolic Activation: RAT, LIVER, S-9, KC 500, Method: PREINCUBATION inactive; negative | Test System: CHINESE HAMSTER OVARY, Strain/Indicator: CHO-K1-BH4 (HGPRT), Metabolic Activation: NONE inactive; negative | Test System: CHINESE HAMSTER OVARY, Strain/Indicator: CHO-K1-BH4 (HGPRT), Metabolic Activation: RAT, LIVER, S-9, AROCLOR 1254 inactive; negative | Test System: E. COLI, Strain/Indicator: WP2UVRA/PKM101, Metabolic Activation: NONE, Method: PREINCUBATION inactive; negative | Test System: E. COLI, Strain/Indicator: WP2UVRA/PKM101, Metabolic Activation: RAT, LIVER, S-9, PHENOBARBITAL AND BETA-NAPHTHOFLAVONE, Method: PREINCUBATION inactive; negative | Test System: E. COLI, Strain/Indicator: WP2 UVRA, Metabolic Activation: NONE, Method: PREINCUBATION inactive; negative | Test System: E. COLI, Strain/Indicator: WP2UVRA, Metabolic Activation: NONE, Method: PREINCUBATION inactive; negative | Test System: E. COLI, Strain/Indicator: WP2 UVRA, Metabolic Activation: RAT, LIVER, S-9, KC 500, Method: PREINCUBATION inactive; negative | Test System: E. COLI, Strain/Indicator: WP2UVRA, Metabolic Activation: RAT, LIVER, S-9, PHENOBARBITAL AND BETA-NAPHTHOFLAVONE, Method: PREINCUBATION inactive; negative
